Test [1] deals with strain Tg5 of C. glabrata. The test is described as follows: Etest method (MIC). Format: cell-based, Candida glabrata. The following applies: for MIC: Nakaseomyces glabratus, read-out: MIC (Etest method). How it is done: (§1) The Etest® method is a commercial test for determining the sensitivity of a strain, most frequently used routinely in clinical mycology laboratories.
(§2) The Etest® tests were performed according to the manufacturer's instructions. After distributing a standardised Mac Farland 0.5 inoculum (equivalent of […]) over plates of RPMI medium, said plates were incubated for 24 h at 35° C., with the exception of C. glabrata in which case the incubation was extended to 48 h so as to be able to determine the minimum inhibitory concentration (MIC).
(§3) The results of the MICs obtained were interpreted in accordance with the tables of the CLSI (Clinical and Laboratory Standards Institute) and/or of EUCAST (European Committee on Antimicrobial Susceptibility Testing) (Arendrup M C, Cuenca-Estrella M, Lass-Flörl C, Hope W W (2014) Breakpoints for antifungal agents: an update from EUCAST focussing on echinocandins against Candida spp and triazoles against Aspergillus spp. Drug Resist Updat 16(6):81-95. doi:10.1016/j.drup.2014.01.001) (cf. Table 2 taken from Maubon D, Garnaud C, Calandra T, et al. (2014) Resistance of Candida spp. to antifungal drugs in the ICU: where are we now? Intensive Care Med. doi: 10.1007/s00134-014-3404-7) which list the clinical thresholds (CBPs) for the most common species of yeast of the genus Candida as a function of different antifungal agents, or according to the table of epidemiological thresholds (ECVs).

The subject of test [2] is strain ATCC®22019 of C. parapsilosis. The test is described as follows: Sensitivity test by HCA microscopy (chitin level, Calcofluor White; cell count). The format is cell-based, Candida parapsilosis. The following applies: SC medium; for decrease of the number of cells / increase of the chitin level in the wall of the cells: vs cells in the absence of antifungal agent. How it is done: (§4) The strains of Candida were incubated beforehand at 30° C. overnight in a yeast extract medium—peptone dextrose (YPD) (1% bacto peptone, 0.5% yeast extract, 2% glucose, 1.5% agar).
(§5) Yeast colonies were then removed from YPD medium plates and suspended in a 0.9% NaCl saline solution, in which the cell concentration was estimated by optical microscopy using Kova counting slides.
(§6) A dilution was performed to obtain 15 ml of an inoculum at 3×10^6 CFU/ml, in a synthetic complete (SC) medium at pH 7 (2% glucose, 0.5% ammonium sulfate, 0.17% nitrogen-containing yeast base, 0.2% synthetic complete mixture, and 10% HEPES 1.5M pH 7.2) for C. albicans, C. parapsilosis, C. tropicalis and C. krusei, and in a solution of RPMI 1640 pH 7.3 (10% HEPES 1M pH 7.2) for C. glabrata, so as to reduce the formation of septa and clusters.
(§7) 1 ml of inoculum was then added to 2 ml of antifungal solution prepared in an SC or RPMI medium depending on the species of fungus, so as to obtain a final concentration of yeast of 10^6 CFU/ml and the desired concentration of antifungal agent according to table 1.
(§8) After homogenisation, the cultures were placed at 30° C. at 200 rpm, with the exception of cultures of C. glabrata, which were placed at 35° C. at 200 rpm, and incubated for a period of 6.5 h or 24 h.
(§9) After incubation, 100 μl of the culture of fungi obtained above were transferred in triplicate to 96-well plates, and 2.5 μl of Calcofluor White (CFW) were added to each well so as to mark the chitin of the cell walls of the yeasts.
(§10) A step of acquiring images by automated fluorescence microscopy (ScanR screening station, Olympus), using a 40× lens and a CFW filter, made it possible to obtain 30 images per well so as to capture enough cells to provide statistically significant data. These images were analysed by software (ScanR analysis software, Olympus). Firstly, the background noise was processed so as to improve the contrast between the fluorescence of the yeasts and background noise. A pixel threshold was then defined. Segmentation of the fluorescent elements present in each of the acquired images was then performed using an algorithm predefined in the software, making it possible to determine the limit of each element on the basis of the fluorescence intensity of said element. A size parameter was then applied to select the yeasts and eliminate the aggregates and the fluorescent debris.
(§11) Each element then corresponding to a yeast, it was thus possible, on the basis of these elements predefined beforehand, to define the fluorescence intensity for each of the yeasts, this intensity being directly correlated with the chitin content of their wall.
(§12) On the basis of said defined elements, it was also possible to automatically count the yeasts,
The strain ATCC®22019 of C. parapsilosis was cultivated as described in paragraph I of the Examples section so as to obtain an inoculum at 3×10^6 CFU/ml in 15 ml of SC medium.
(§13) 2 ml of fluconazole solution prepared in the SC medium were then added to 1 ml of this inoculum so as to obtain a final concentration of yeast of 10^6 CFU/ml and of 16 μg/ml in fluconazole.
(§14) The inoculum was treated in the same way so as to obtain cultures of 10^6 CFU/ml and the following concentrations of fluconazole: 0.015 μg/ml, 0.031 μg/ml, 0.062 μg/ml, 0.125 μg/ml, 0.25 μg/ml, 0.5 μg/ml, 1 μg/ml, 2 μg/ml, 4 μg/ml, 8 μg/ml, 16 μg/ml.
After incubation for 6.5 h at 30° C. with stirring at 200 rpm, 100 μl of each culture were removed and transferred to 96-well plates. This procedure was performed in triplicate, and 2.5 μl of CFW were then added to each well.
(§15) The chitin level in the cell wall of the yeasts was then measured by […] analysis (HCA) microscopy, as described in paragraph II of the Examples section, in triplicate for each condition of concentration of fluconazole and without fluconazole. […]

The test system is the same in test [3]. Put plainly: Etest method (MIC). Format: cell-based, Candida parapsilosis. Conditions: for MIC: Lodderomyces parapsilosis, read-out: MIC (Etest method). As to the method:
as §1, §2, §3

For test [4], the system named is strain ATCC®7349 of C. tropicalis. Put plainly: Etest method (MIC). Format: cell-based, Candida tropicalis. Conditions: for MIC: Candida tropicalis, read-out: MIC (Etest method). As to the method: as §1, §2, §3
The test system is the same in test [5]. The test is described as follows: Sensitivity test by HCA microscopy (chitin level, Calcofluor White; cell count). The format is cell-based, Candida tropicalis. Conditions: SC medium; for decrease of the number of cells / increase of the chitin level in the wall of the cells: vs cells in the absence of antifungal agent; for increase of the chitin level in the wall of the cells: concentration gradient of Table 1. How it is done: as §4, §5, §6, §7, §8, §9, §10, §11, §12
The strain ATCC®7349 of C. tropicalis was cultivated as described in paragraph I of the Examples section so as to obtain an inoculum at 3×10^6 CFU/ml in 15 ml of SC medium.
as §13, §14
After incubation for 24 h at 30° C. with stirring at 200 rpm, 100 μl of each culture were removed and transferred to 96-well plates. This procedure was performed in triplicate, and 2.5 μl of CFW were then added to each well.
as §15

Where [6] appears, read: RPMI medium plates, 35° C., incubation extended to 48 h for C. glabrata.
The mark [7] stands for this setting: 6.5 h at 30° C., concentration gradient of Table 1.
The mark [8] stands for this setting: ATCC22019, RPMI medium plates, 24 h at 35° C.
Setting [9] is: RPMI medium plates, 24 h at 35° C.
[10] abbreviates: ATCC7349, RPMI medium plates, 24 h at 35° C.

The structures appear in SMILES notation. Converted amounts (≈) assume the structure as drawn. Read-outs that look alike come from different tables or passages of the source. Starred links: 1 amine or outer side, 2 acyl side, 3 side chain; linkers in the order of their positions; H or OH if unused. Positions of bridges follow the written chain, without caps; N, C: chain ends. Non-standard residues stand in square brackets, D forms with d. Residues, ends and D or L forms follow the SMILES beside them. *: point of attachment. hTyr(3S-OH,4S-OH,3'-OSO3H) = N[C@H](C(=O)O)[C@H](O)[C@@H](O)c1ccc(O)c(OS(=O)(=O)O)c1; Orn(4R-OH,5R-OH) = O=C([C@H](C[C@@H](O)[C@@H](O)N[*:3])N[*:1])[*:2]; Pro(3S-OH,4S-Me) = C[C@H]1CN[C@H](C(=O)O)[C@H]1O; X1 = CCCCCOc1ccc(-c2cc(-c3ccc(C(=O)*)cc3)no2)cc1; Gln(3R-OH) = NC(=O)C[C@@H](O)[C@H](N)C(=O)O; Hyp = O=C(O)[C@@H]1C[C@@H](O)CN1

What is called MIC is the least concentration at which growth counts as inhibited. Regarding `OC(Cn1cncn1)(Cn1cncn1)c1ccc(F)cc1F` [fluconazole], the MIC is more than 256 µg/mL in test [1] (setting [6]), 1 µg/mL (≈ 3.27 µM) in test [3] (setting [8]) and 0.38 µg/mL (≈ 1.24 µM) in test [4] (setting [10]). Besides, the “phenotype by Etest MIC, interpretation by the EUCAST and/or CLSI tables” value (“phenotype by Etest MIC, interpretation” below) in test [1] (setting [6]) is “resistant”; in test [3] (setting [9]), “sensitive”; in test [4] (setting [9]), “sensitive”. Also, the “phenotype of the strain with respect to the antifungal agent (HCA)” value (“phenotype of the strain” below) is “sensitive (an increase in the chitin level greater than or equal to 20% is observed compared to the chitin level of a population of cells of said fungus in the absence of antifungal agent, as well as a decrease in the number of cells of at least 0.3 log)” in test [2] (6.5 h at 30° C.) and “sensitive (an increase in the chitin level greater than or equal to 20% is observed compared to the chitin level of a population of cells of said fungus in the absence of antifungal agent, as well as a decrease in the number of cells of at least 0.3 log)” in test [5] (24 h at 30° C.). Besides, the “decrease of the number of cells” value in test [2] (6.5 h at 30° C.) and in test [5] (24 h at 30° C.) was “at least 0.3 log” throughout. In addition, the “increase of the chitin level in the wall of the cells” value (“increase of the chitin level” for short) in test [2] (setting [7]) and in test [5] (24 h at 30° C.) was “greater than or equal to 20%” in each case.

On to `C[C@@H](c1ncncc1F)[C@](O)(Cn1cncn1)c1ccc(F)cc1F` [voriconazole], for which the MIC in test [1] (48 h) is 8 µg/mL (≈ 22.9 µM); in test [3] (setting [8]), 0.023 µg/mL (≈ 0.0658 µM); in test [4] (setting [10]), 0.023 µg/mL (≈ 0.0658 µM). Also, the “phenotype by Etest MIC, interpretation” value in test [1] (setting [6]) is reported as “resistant”; in test [3] (setting [9]), “sensitive”; in test [4] (setting [9]) it was “sensitive”. For the same compound, the “phenotype of the strain” value is recorded as “sensitive (an increase in the chitin level greater than or equal to 20% is observed compared to the chitin level of a population of cells of said fungus in the absence of antifungal agent, as well as a decrease in the number of cells of at least 0.3 log)” in test [2] (6.5 h at 30° C.) and “sensitive (an increase in the chitin level greater than or equal to 20% is observed compared to the chitin level of a population of cells of said fungus in the absence of antifungal agent, as well as a decrease in the number of cells of at least 0.3 log)” in test [5] (6.5 h at 30° C.). Further, the “decrease of the number of cells” value in test [2] (6.5 h at 30° C.) and in test [5] (6.5 h at 30° C.) was “at least 0.3 log” in each case. The “increase of the chitin level” value in test [2] (setting [7]) and in test [5] (6.5 h at 30° C.) was “greater than or equal to 20%” in each case.

With `CCCCCOc1ccc(-c2cc(-c3ccc(C(=O)N[C@H]4C[C@@H](O)[C@@H](O)NC(=O)[C@@H]5[C@@H](O)[C@@H](C)CN5C(=O)[C@H]([C@H](O)CC(N)=O)NC(=O)[C@H]([C@H](O)[C@@H](O)c5ccc(O)c(OS(=O)(=O)O)c5)NC(=O)[C@@H]5C[C@@H](O)CN5C(=O)[C@H]([C@@H](C)O)NC4=O)cc3)no2)cc1` [micafungin] (X1-[Orn(4R-OH,5R-OH)]T[Hyp][hTyr(3S-OH,4S-OH,3'-OSO3H)][Gln(3R-OH)][Pro(3S-OH,4S-Me)]; lactam 1-C), the “phenotype of the strain” value in test [2] (24 h at 30° C.) was “sensitive (an increase in the chitin level greater than or equal to 20% is observed compared to the chitin level of a population of cells of said fungus in the absence of antifungal agent, as well as a decrease in the number of cells of at least 0.3 log)”; in test [5] (6.5 h at 30° C.), “sensitive (an increase in the chitin level greater than or equal to 20% is observed compared to the chitin level of a population of cells of said fungus in the absence of antifungal agent, as well as a decrease in the number of cells of at least 0.3 log)”. In addition, the “decrease of the number of cells” value in test [2] (24 h at 30° C.) and in test [5] (6.5 h at 30° C.) was “at least 0.3 log” each time. Moreover, the “increase of the chitin level” value is “greater than or equal to 20%” in test [2] (24 h at 30° C., concentration gradient up to 1 μg/ml) and “greater than or equal to 20%” in test [5] (6.5 h at 30° C.). Besides, the minimum inhibitory concentration (MIC) in test [3] (ATCC22019, 24 h) was found to be 0.19 µg/mL (≈ 0.15 µM); in test [4] (ATCC7349, 24 h) it was 0.016 µg/mL (≈ 0.0126 µM). In addition, the “phenotype by Etest MIC, interpretation” value in test [3] (setting [9]) and in test [4] (setting [9]) was “sensitive” in each case.

The record behind these values is patent US11415513B2, “Method for determining the degree of sensitivity of a strain of fungus to an antifungal agent” (UNIVERSITE GRENOBLE ALPES, priority 2015, dated 2022).
